Structures are written as SMILES.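 Each compound was tested at five concentrations against cells in 96-well plates for 48 hours. Abbreviation: GI50, concentration required for 50% inhibition of growth. The concentration for full growth arrest is given as TGI.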

Test systems include LOX IMVI melanoma; HOP-92 NSCLC; HOP-62 NSCLC; OVCAR-5 ovarian; SK-MEL-2 melanoma; IGROV1 ovarian; A498 renal; UACC-62 melanoma; SK-OV-3 ovarian.
Holding throughout (test): NCI-60 cell line screen, 48 h

As to `CCCCCCCCCC[C@@H](O)[C@H]1CC[C@@H]([C@H]2CC[C@H]([C@H](O)CCCCCCCCCC[C@@H]3CC(CC(C)=O)C(=O)O3)O2)O1` (stereo not given in full), the GI50 was 0.152 µM in the assay with LOX IMVI melanoma, 19.1 µM in the assay with HOP-62 NSCLC and 21.5 µM in the assay on SK-MEL-2 melanoma. Moreover, the TGI in the assay with LOX IMVI melanoma was 27.3 µM; with HOP-92 NSCLC, 63.4 µM; in the assay on HOP-62 NSCLC, 72.2 µM; in the assay on OVCAR-5 ovarian, greater than 100 µM; with SK-MEL-2 melanoma, 59.9 µM; with IGROV1 ovarian, greater than 100 µM. Moreover, the TGI in the assay on A498 renal was 97 µM.

Consider `C=CC(=O)N1C/C(=C\c2ccc(F)cc2)C(=O)/C(=C/c2ccc(F)cc2)C1`, for which the TGI was 0.223 µM in the assay with UACC-62 melanoma; 0.415 µM in the assay on LOX IMVI melanoma; 8.62 µM with HOP-92 NSCLC; 1.41 µM with HOP-62 NSCLC; 2.38 µM in the assay on SK-OV-3 ovarian; 2.7 µM in the assay with OVCAR-5 ovarian. For the same molecule, the figures for the TGI in the assay with SK-MEL-2 melanoma, in the assay with IGROV1 ovarian and in the assay on A498 renal were 2.69 µM, 1.38 µM and 1.48 µM, respectively.

For the molecule `CN(c1ccccc1)c1c(-c2ccccc2)c(=O)oc2c1ccc1occc12`, the TGI with UACC-62 melanoma is greater than 100 µM; in the assay with LOX IMVI melanoma, greater than 100 µM; in the assay on HOP-92 NSCLC it was greater than 95.6 µM; in the assay with HOP-62 NSCLC, greater than 100 µM; in the assay with SK-OV-3 ovarian, greater than 100 µM; in the assay with SK-MEL-2 melanoma, greater than 100 µM. Besides, the TGI in the assay with IGROV1 ovarian and in the assay with A498 renal was greater than 100 µM in each case.

As for `COc1cccc2c1C(=O)c1c(O)c3c(c(O)c1C2=O)C[C@](O)(C(=O)CO)CC3OC1CC(N)C(OC2CCCCO2)C(C)O1` (stereo not given in full), the TGI is 1.11 µM in the assay on UACC-62 melanoma; 1.66 µM in the assay with LOX IMVI melanoma; 1.02 µM in the assay with HOP-92 NSCLC; 1.7 µM in the assay on HOP-62 NSCLC; 8.28 µM in the assay on SK-OV-3 ovarian; 2.17 µM in the assay on OVCAR-5 ovarian. For the same molecule, the TGI in the assay with SK-MEL-2 melanoma was 2.43 µM; in the assay on IGROV1 ovarian it was 11.4 µM; in the assay with A498 renal, 0.766 µM.

For `Brc1ccc2[nH]cc(-c3nc(-c4c[nH]c5ccncc45)cs3)c2c1`, the GI50 in the assay on SK-OV-3 ovarian was 1.65 µM; in the assay with OVCAR-5 ovarian it was 1.79 µM; with SK-MEL-2 melanoma, 1.92 µM; in the assay with A498 renal, 1.81 µM. In addition, the TGI with SK-OV-3 ovarian was found to be 3.03 µM; with OVCAR-5 ovarian, 3.21 µM; with SK-MEL-2 melanoma it was 3.72 µM; with A498 renal, 3.22 µM.

Consider `O=C(c1ccccc1)c1ccc2c(c1)N=C(c1ccc(Cl)c(Cl)c1)CC(c1ccc3ccccc3c1)N2` (stereo not given), for which the TGI in the assay on UACC-62 melanoma, in the assay with LOX IMVI melanoma, in the assay on HOP-92 NSCLC, in the assay with HOP-62 NSCLC, in the assay with SK-OV-3 ovarian and in the assay with OVCAR-5 ovarian was greater than 100 µM in each case. The TGI in the assay with SK-MEL-2 melanoma, in the assay on IGROV1 ovarian and in the assay on A498 renal was greater than 100 µM throughout.

For `Cc1cccc(-c2cc(=O)c3c(C)ccnc3[nH]2)c1`, the TGI with UACC-62 melanoma, with LOX IMVI melanoma, with HOP-62 NSCLC, with SK-OV-3 ovarian, in the assay with OVCAR-5 ovarian and in the assay with SK-MEL-2 melanoma was greater than 100 µM each time. For the same molecule, the TGI in the assay on IGROV1 ovarian and in the assay with A498 renal was greater than 100 µM in each case.

As for `Cc1cc(=O)[nH]c(S(=O)(=O)NC(=S)Nc2ccc(Br)cc2)n1`, the TGI with UACC-62 melanoma, in the assay with HOP-92 NSCLC, with HOP-62 NSCLC, with SK-OV-3 ovarian, with OVCAR-5 ovarian and with SK-MEL-2 melanoma was greater than 100 µM each time. Besides, the TGI in the assay on IGROV1 ovarian and in the assay on A498 renal was greater than 100 µM throughout.

Turning to `CC1Oc2c(c(O)cc3oc(=O)cc(-c4ccccc4)c23)C(=O)C1C` (stereo not given), the TGI with UACC-62 melanoma, in the assay on LOX IMVI melanoma, in the assay with HOP-92 NSCLC, with SK-OV-3 ovarian, in the assay with SK-MEL-2 melanoma and in the assay on IGROV1 ovarian was greater than 100 µM in each case. In the assay on A498 renal, this molecule gave a TGI greater than 100 µM.

In the case of `COc1ccc(/C(Cl)=C(\C=O)c2ccc(Cl)cc2)cc1`, the TGI with UACC-62 melanoma is 32.8 µM; in the assay with LOX IMVI melanoma, 23.8 µM; in the assay on HOP-62 NSCLC, 53.6 µM; in the assay with SK-OV-3 ovarian, greater than 100 µM; in the assay on OVCAR-5 ovarian, greater than 100 µM; with SK-MEL-2 melanoma it was 54.6 µM. Also, the TGI turned out to be 42.1 µM with IGROV1 ovarian and 74 µM in the assay on A498 renal.

For `CCC[CH2][Ge]([CH2]CCC)([CH2]CCC)[O]C(=O)CCl`, the GI50 was 1.07 µM in the assay on UACC-62 melanoma; 1.16 µM in the assay with LOX IMVI melanoma; 0.573 µM in the assay on HOP-92 NSCLC; 1.89 µM in the assay with HOP-62 NSCLC; 5.2 µM in the assay on SK-OV-3 ovarian; 12.3 µM in the assay on OVCAR-5 ovarian. Moreover, the GI50 is 3.59 µM with SK-MEL-2 melanoma and 3.27 µM with IGROV1 ovarian. Moreover, the TGI in the assay on UACC-62 melanoma amounted to 8.67 µM; with LOX IMVI melanoma, 3.52 µM; in the assay on HOP-92 NSCLC it was 8.54 µM; in the assay with HOP-62 NSCLC it was 9.23 µM; in the assay with SK-OV-3 ovarian, 20.6 µM; in the assay with OVCAR-5 ovarian, 26.2 µM. The TGI in the assay with SK-MEL-2 melanoma is 19.7 µM; in the assay with IGROV1 ovarian, 18.4 µM.

Source of the values: PubChem BioAssay (NCI).
